Data: patent publication US20240058299A1 (Humanetics Corporation, priority 2021, published 2024)
Entries after “also recorded” stand apart in the source; their conditions may differ.

Legend:
[1] = tested on: NF-κB, pro-inflammatory cytokines (IL-1, IL-6, TNFα), pro-fibrotic proteins (TGFβ, MMP-2, MMP-9, LDH); settings: literature reports; cited from earlier work
[2] = tested on: microHeart cells (human induced pluripotent stem cell-derived cardiac cells); test: Survival of irradiated microHeart cells by trypan blue staining; type: cell-based
Experimental: Cell survival was measured by trypan blue staining. The number of surviving cells 24 hours after irradiation is plotted. […] Cell survival was measured by trypan blue staining. The number of surviving cells 72 hours after irradiation is plotted.
Further studies using genistein were conducted in microHeart cells (StemoniX, Maple Grove, MN) exposed to different types of radiation. […] Cell survival was evaluated 24 hours after radiation exposure. […] Cell survival was evaluated 72 hours after radiation exposure. […] Moreover, since cell death causes the release of pro-inflammatory signals, protecting cells from death may reduce inflammation.

[3] = Solubility in pharmaceutically acceptable solvents; type: physicochemical; settings: several pharmaceutically acceptable solvents
Description: The relative amount of genistein included in such a suspension can be varied to yield a formulation having a desired total content of genistein.

O=c1c(-c2ccc(O)cc2)coc2cc(O)cc(O)c12 [genistein, 5,7-dihydroxy-3-(4-hydroxyphenyl)-4H-chromen-4-one]
expression of NF-κB, pro-inflammatory cytokines and pro-fibrotic proteins [1]: reduce expression
killing effect of γ-radiation (cell survival) ([2]; 0.5 μM or 5 μM, 24 hours before 1 Gy γ-radiation, survival 24 hours after irradiation): the killing effect was mitigated by genistein; also recorded: Genistein treatment was radioprotective
killing effect of mixed field radiation (cell survival) ([2]; 0.5 μM, 24 hours before 1 Gy mixed field radiation (˜32% neutron, −68% gamma), survival 72 hours after irradiation): the killing effect was again mitigated by genistein; also recorded: genistein was radioprotective
solubility [3]: low to virtually no solubility
